Source: article PMC9964746, “Mechanism of Action and Structure–Activity Relationships of Tetracyclic Small Molecules Acting as Universal Positive Allosteric Modulators of the Cholecystokinin Receptor” (Membranes, 2023)

Columns and labels:
CCK1R [1] = biological target: T1, CCK1R (Homo sapiens, UniProt P32238); experiment: Intracellular calcium assay (Fura-8-AM) in CHO-CCK1R cells; format: cell-based; parameters: expressed in transfected cells; conditions: for Intrinsic agonist activity at CCK1R (intracellular calcium): CHO-CCK1R cells, compound alone, up to 20 µM; for Kb / Logαβ: operational model of allosterism, mean ± SEM; for Kb: CCK-8-stimulated calcium responses in CCK1R-expressing cells; for Logαβ: cooperativity with CCK-8 in CCK1R-expressing cells
T1 sequence (P32238 1-428): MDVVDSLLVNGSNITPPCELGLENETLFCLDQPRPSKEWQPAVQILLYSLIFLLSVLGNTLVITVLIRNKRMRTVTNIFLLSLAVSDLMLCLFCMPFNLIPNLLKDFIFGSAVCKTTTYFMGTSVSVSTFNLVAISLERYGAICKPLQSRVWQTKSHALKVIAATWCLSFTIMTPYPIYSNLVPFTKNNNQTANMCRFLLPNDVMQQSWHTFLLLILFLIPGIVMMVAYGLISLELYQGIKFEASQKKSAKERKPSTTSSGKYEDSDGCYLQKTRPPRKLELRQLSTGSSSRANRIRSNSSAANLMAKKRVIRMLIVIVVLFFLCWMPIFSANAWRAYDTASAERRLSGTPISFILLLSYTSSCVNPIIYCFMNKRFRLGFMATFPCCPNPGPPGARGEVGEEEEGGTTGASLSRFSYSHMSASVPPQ
Description: (§1) Biological activity was quantified in the CHO cell lines described above using intracellular calcium assays that were performed, as previously described, using Fura-8-AM (AAT Bioquest, Pleasonton, CA, USA). Full agonist dose–response curves were performed along with determination of maximal responses to 0.1 mM ATP, targeting an endogenous receptor present on the parental cells. Concentration–response curves of peak intracellular calcium responses were analyzed and plotted as percentages of maximal responses using non-linear regression analysis in Prism 9.1 (GraphPad).

[2] = test system: purinergic receptor (P2YR); conditions: off-target screen ref 6; cited from earlier work
CCK1R [3] = biological target: T1, CCK1R; experiment: IP-One accumulation TR-FRET assay, PAM format, HEK-293 CCK1R cells; format: cell-based; parameters: expressed in transfected cells; host or cells: HEK-293; conditions: for Emax: HEK293; for EC50: PAM format with EC20 CCK
How it was run: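 HEK-293 cells overexpressing CCK1R were plated overnight, then given compounds (top 50 µM, 16-point 2-fold) for 30 min at 37 °C. CCK stimulator with 50 mM LiCl (PAM format) or DMSO (agonist format) followed for 1 h. IP-One was read by TR-FRET; activity score = CCK-normalized Emax × pEC50.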

parental CHO cells = experiment: Intracellular calcium assay in parental CHO cells; format: cell-based; conditions: compound alone, up to 20 µM
Description: as §1

[4] = HEK-293 CCK1R cells, PAM format, relative to CCK control, average ± SD
[5] = HEK-293 CCK1R cells, PAM format
[6] = HEK-293 CCK1R cells, average ± SD

SMILES | Intrinsic agonist activity at CCK1R (intracellular calcium) (CCK1R [1]) | Kb (CCK1R [1]) | Logαβ (CCK1R [1]; listed as Hit 1) | Logαβ (CCK1R [1]; listed as hit 1) | Activity at P2YR [2] | Log(Rmax/R50) (CCK1R [3]; CCK1R IP-One PAM assay) | Emax (CCK1R [3]; [4]) | CCK1R PAM (IP-One) Score (activity score = normalized Emax × pEC50) (CCK1R [3]; [5]) | EC50 (CCK1R [3]; [6]) | CCK1R PAM (IP-One) Emax (CCK1R [3]; [4]) | CCK1R PAM (IP-One) Score (activity score = normalized Emax × pEC50) (CCK1R [3]; HEK-293 CCK1R cells, PAM format, listed as hit 1) | AUC relative to AUC of endogenous agonist CCK (CCK1R [3]; from activity scores, CCK1R IP-One) | Agonist activity at parental CHO cells (intracellular calcium) (parental CHO cells) | Logαβ (CCK1R [1]; listed as Hit 6) | Logαβ (CCK1R [1]; listed as hit 6) | CCK1R PAM (IP-One) Score (activity score = normalized Emax × pEC50) (CCK1R [3]; HEK-293 CCK1R cells, PAM format, listed as hit 6)
CCN(CC)CCNc1ncnc2c1sc1nc(N3CCOCC3)c3c(c12)CCCC3 [CMP-1] | no significant endogenous agonist activity at CCK1R | 31.6 µM | 1.5 ± 0.3 | 1.5 | Neither compound exhibited any activity at the P2YR | 4.7 | 60% | 2.94 | 12.8 ± 4.6 µM | 63 ± 18% | 2.9 | approximately 29% | no significant endogenous agonist activity |  |  | 
CCCc1nc2oc3c(NCCCN(C)C)ncnc3c2c2c1CCCC2 [CMP-28] | no significant endogenous agonist activity at CCK1R | 25.1 µM |  |  | Neither compound exhibited any activity at the P2YR |  | 35 ± 13% | 1.66 | 9.5 ± 3.5 µM |  |  |  | no significant endogenous agonist activity | 1.0 ± 0.2 | 1.0 | 1.7
